Row | SMILES | melting point [°C]
1 | CC(C)C1=C(C#N)C(c2cccc3nocc23)c2c[nH]nc2N1 (centres undefined) | 245
2 | CNC(=O)c1ccccc1Sc1ccc(C)cc1[N+](=O)[O-] | 122 to 123
3 | Cc1cc(C)c(Nc2nc(C)ccc2S(=O)(=O)c2ccc(OCc3c(C)cccc3C)cc2)c(C)c1 | 136 to 138
4 | O=C(c1ccc(-c2ccccc2)cc1)C(Br)CCCl (centres undefined) | 85 to 88
5 | N#Cc1cnc2cc(/C=C/c3ccncc3)sc2c1Nc1ccc(Oc2ccccc2)cc1 | 240 to 241
6 | CN1CCN(c2nn(-c3ccc(O)cc3)c3ccccc23)CC1 | 191 to 193
7 | O=C(NC1N=C(c2ccccc2F)c2ccccc2NC1=O)c1ccccc1Cl (racemic) | 224
8 | O=C(CP(=O)(O)O)NC1CCCCC1 | 180 to 183
9 | CCC1SC=C(C)NC1=O (centres undefined) | 69 to 71
10 | Cc1cc(OCCc2ccccc2)ccc1[N+](=O)[O-] | 70 to 72
11 | COC(=O)c1ccc(F)cc1OC(=S)N(C)C | 107
12 | N#Cc1ccc(C=CC(=O)N2CCc3c([nH]c4ccccc34)C2c2ccc3c(c2)OCO3)cc1 (centres undefined) | 167
13 | COc1ccc2c3c([nH]c2c1)C(=O)N=NC3=O | > 260
14 | COC(=O)N[C@@H]1CCc2ccc(Br)cc2C1=O | 111 to 112
15 | CS(=O)(=O)c1ccc(N2CC(CO)OC2=O)cc1 (centres undefined) | 177 to 180
16 | CN1CCN(c2cccc3c2C[C@H](NC(=O)c2ccc(N4CCNCC4)cc2)CO3)CC1 | > 102
17 | COc1ccc2c(c1)CC(C)(CN1CCN(c3ccccc3)CC1)NC2=O (centres undefined) | 93 to 95
18 | COc1ccc(C=CC(=O)O)cc1-c1cc2c(cc1OCCN1CCCCC1)C(C)(C)CCC2(C)C | 251 to 253
19 | CCCCCCCCCCCCCCCCCCc1ccc(O)c([N+](=O)[O-])c1 | 71
20 | CC1(C)CC(OC(=O)Nc2ccccc2)CC(C)(C)N1OC(=O)Nc1ccccc1 | 188 to 190
21 | CC(C)N(C[C@H](O)COc1ccc(OCc2ccccc2)cc1)S(C)(=O)=O | 96 to 97

Row | SMILES | melting point [°C]
22 | COc1ccc2c(c1OC)CCC1C(=O)NC(=O)C21 (centres undefined) | 217 to 219
23 | OC(c1cn(C(c2ccccc2)(c2ccccc2)c2ccccc2)cn1)c1cc(Cl)cc2c1OCOC2 (centres undefined) | 233 to 235
24 | COc1ccc(C(C)=NOCc2ccc([N+](=O)[O-])cc2)cc1F | 67 to 68
25 | COc1ccc(Cn2cc(OCc3ccccc3)c(=O)cc2C(=O)NCCNCc2ccccc2)cc1 | 112
26 | Cc1ccc(-n2c(=O)c3c(N4CCNCC4)cc(Cl)cc3n(Cc3ccccc3)c2=O)cc1 | 120 to 124
27 | Cc1ccc(CCN2CCC[C@H](C(C#N)(c3ccccc3)c3ccccc3)C2)cc1 | 110 to 113
28 | O=C1N[C@@H](C(=O)NO)C[C@H]1c1ccc(-c2ccc(F)cc2)cc1 | 193 to 202
29 | O=C(O)C(O)c1cccnc1 (centres undefined) | 140
30 | COc1cc(C)c2c(c1C)C(SC)C(=O)N2 (centres undefined) | 226 to 227
31 | CCOC(=O)C(C)(NC(C)=O)C(=O)OCC | 89 to 90
32 | c1ccc(CN2CCC3(CC2)Oc2ccccc2Cn2cccc23)cc1 | 109 to 111
33 | Nc1ccc(N2CCN(Cc3ccccc3)CC2)cc1 | 137 to 138
34 | COc1cc(CC(=O)C(CNCCOc2ccc(C(=O)O)cc2OC)NC2CC2)ccc1NC(=O)Nc1ccccc1C (centres undefined) | 135 to 140
35 | CCCCCCCCCCCCCCCCCCOc1ccc(C(=O)OC)c(OCCCOc2ccc(OCc3ccccc3)cc2)c1 | 68 to 70
36 | O=C(NO)C1(S(=O)(=O)c2ccc(Oc3ccc(Cl)cc3)cc2)CCN(Cc2ccccc2)CC1 | 90.4
37 | COc1ccc(Nc2c(C#N)cnc3cc(OC)c(OC)cc23)cc1OC | 230 to 240
38 | COc1cc(Br)cc2cc(C(C)=O)oc12 | 107 to 109
39 | O=c1cc(-c2ccccc2)oc2cc(OCCCCCCN3CCCCC3)cc(O)c12 | 103
40 | CCN1C(=O)C(C(=O)Nc2ccc(F)cc2)c2cc3c(cc21)CC(C)(C)O3 (centres undefined) | 160 to 162
41 | c1ccc(N2CCN(c3nc4cccc5c4n3CCC5)CC2)cc1 | 168 to 169
42 | Cc1ccccc1C(N)=CC#N | 111 to 113

Other lines, results leading:

Row | melting point [°C] | SMILES
43 | 156 to 158 | COc1nc2ccccc2cc1NC(=O)N1CCN(c2ccccc2F)CC1
44 | 234 to 236 | Cn1nc(C(=O)O)c(=O)n(-c2ccc(Cl)cc2)c1=O
45 | 115 to 118 | FC(F)(F)CNc1nc(Cl)nc(Cl)n1
46 | > 250 | COCCNc1ncc(-c2cnc3[nH]c(=O)n(CC4CCCCC4)c3n2)cn1
47 | 210 to 211 | COc1ccc(Nc2ncc3c(n2)-c2sc(C)nc2CC3)cn1
48 | 231 to 234 | Nc1cccc2cc(C(=O)O)ccc12
49 | > 266 | O=C1CNC(=S)N1c1ccc2nc(S)sc2c1
50 | 156 to 157 | Cc1oc(-c2ccc(C(F)(F)F)cc2)nc1CCOc1ccc(CN(O)C(N)=O)cc1
51 | 237 to 240 | O=C(O)c1ccc(NCc2cncc3ccccc23)cc1
52 | 144 | CC(C)(C)C(=O)C(C#N)C(=O)c1ccc(S(C)(=O)=O)cc1Cl (centres undefined)
53 | 96 to 98 | O=[N+]([O-])c1ccc(O)c(CNCCC(F)=C(F)F)c1
54 | 122 to 124 | O=C(Nc1c(F)cc(F)cc1F)N(Cc1cc2ccccc2c2ccccc12)C1CCCCC1
55 | 180 to 183 | N#Cc1ccccc1C#CCOCCn1cnc2c(N)nc3ccccc3c21
56 | 135 to 140 | CSc1cc(C(=O)O)cc(C(F)(F)F)c1
57 | 75 to 76 | Cc1ccnc2c1C(=O)CC(c1cc(F)ccc1F)C2 (centres undefined)
58 | 81 to 83 | CCN(CCO)Cc1cc(Nc2nc(Nc3ccc4c(c3OC)CCC(N3CCOCC3)CC4)ncc2Cl)ccc1F (centres undefined)
59 | 152 | CN1C(=O)[C@@H](NC(=O)OC(C)(C)C)COc2ccccc21
60 | 57 to 60 | COc1ccc(S(=O)(=O)C(Cc2cccnc2)(CC2CCCCC2)C(=O)NO)cc1 (centres undefined)
61 | 144 to 146 | CC(O)(CCN)C1(F)C=CC(c2ccccc2)=CC1 (centres undefined)

Row | melting point [°C] | SMILES
62 | 122 to 123 | CSc1nc(C)ccc1NC(=O)CCCCCSc1nc2ccccc2s1
63 | 135 to 136 | Cn1cc(C(=O)NCc2ccc(Cl)cc2)c(=O)c2scc(COCC[Si](C)(C)C)c21
64 | 280 to 282 | Cc1cccc(Nc2c(N)cc(C(=O)O)cc2S(N)(=O)=O)c1
65 | 233 to 235 | Cc1cc(C)nc(C(=O)c2[nH]c3ccc(Cl)cc3c2CC(=O)O)c1
66 | 158 | Cn1c(=O)cnc2cccc(Oc3cc(-c4ccc(C(F)(F)F)cc4)ncn3)c21
67 | 151 to 152 | O=C(N[C@H](Cc1cccc(OC(F)(F)C(F)F)c1)[C@@H](O)c1ccc(CO)cc1)c1cccc2c1C=CCCC2 (racemic)
68 | 240 to 241 | C#Cc1cccc(Nc2ncnc3c2ccn3CCOCCOC)c1
69 | 180 to 183 | CC(C)COc1c(-c2ccc(S(C)(=O)=O)c(F)c2)cnn(-c2cccc(Cl)c2)c1=O
70 | 77 to 78 | C=CCOC(=O)c1cc(NC(=O)OC(C)(C)C)ccc1OCC=C
71 | 218 to 220 | CC(C)Nc1nc2cc(Cl)c(Cl)cc2[nH]1
72 | 146 to 147 | CC(=O)ONC(=N)c1ccc(-c2nc(C)c(C(=O)NC(C)C(O)(Cn3cncn3)c3ccc(F)cc3F)s2)cc1 (centres undefined)
73 | 65 to 70 | COC(=O)c1ccc(OCCNC(=O)C2Cc3ccccc3N2S(=O)(=O)c2ccc(-c3cccc(C(F)(F)F)c3)cc2)c(F)c1 (centres undefined)
74 | 71.5 to 72.5 | CCOC(=O)C(=CNc1ccc(F)c(Cl)c1)C(=O)OCC
75 | 259 to 260 | Cc1ncc2cc(-c3ccccc3Cl)c(N)nc2n1
76 | 81 to 84 | CCc1n[nH]c(CC)c1Oc1cccc(C#N)c1
77 | 159 to 161 | CCNc1nc2ccc(CCc3cn4c(n3)CC(C)CC4)cc2o1 (centres undefined)
78 | 79 to 82 | CC(=O)c1ncccc1C(O)=NNC(=O)Nc1cc(F)cc(F)c1
79 | 135 to 140 | CCOC(=O)c1nc(Cc2ccccc2[N+](=O)[O-])n[nH]1
80 | 145 | O=C1c2nccc(Br)c2C(=O)c2c(-c3ccccc3NC(=O)C(F)(F)F)ccnc21

Row | melting point [°C] | SMILES
81 | 169 to 170 | Cc1nonc1-n1cc(C(=O)O)c(=O)c2cc(F)c(N3CC[C@H](N)C3)c(F)c21
82 | 162 to 163 | COc1ccc(C2(Cl)CC(CNC(C)(C)C)=Nc3sc4c(c32)CCNC4)cc1OC (centres undefined)
83 | 104 to 106 | Nc1cc(NS(=O)(=O)CCl)c(Cl)cc1F
84 | 158 to 160 | CON(CCCCn1c(C)nc2c(N)nc3ccccc3c21)C(N)=O
85 | 112 to 115 | C#Cc1ccc(Nc2c(-c3nnc(NCCO)o3)ccc(F)c2F)c(F)c1
86 | 100 to 102 | OC(CNC1CC1)COc1ccc(-c2nccs2)cc1 (centres undefined)
87 | 109 to 111 | COC[C@@H](NC(=O)c1nn(-c2ccc(F)cc2F)c2c1C1CCC2C1)c1ccc(F)cc1 (some centres undefined)
88 | 170 | COc1ccc2cc(-c3ccc(-n4nc(C)c(C)n4)c(Cl)c3)c(=O)oc2c1
89 | 240 to 241 | NS(=O)(=O)c1cc2c(cc1Cl)C(=O)N(CCc1ccccn1)C2=O
90 | 136 to 137 | CCOC(=O)CC(=O)c1cc(O)c(O)c([N+](=O)[O-])c1
91 | 110 to 129 | O=C(Nc1ccc(Cl)cc1C(=NO)c1ccccc1)C(F)Cl (centres undefined)
92 | 171 | CCOC(=O)c1nc(-c2ccccc2)[nH]c1N=NN(C)C
93 | 190 to 191 | COCCNC(=O)c1ccc(C(=O)NS(=O)(=O)c2ccccc2)cn1
94 | 117 to 119 | Cn1cc(C(=O)Nc2ccccc2OC(F)(F)C(F)F)c(C(F)F)n1
95 | 174 to 176 | Cc1oc(-c2ccccc2)nc1CCOc1ccc(C[C@H](NC(=O)C(F)=Cc2ccccc2)C(=O)O)cc1
96 | 163 | Clc1cc2c(cc1Cn1ccnc1-c1ccccc1)OCO2
97 | 266 to 268 | O=C1Nc2cc(C(F)(F)F)ccc2C1c1cc(Cl)ccc1O (centres undefined)
98 | 79 to 81 | O=C(OCC=C(c1ccccc1)[N+](=O)[O-])C(F)(F)C(F)(F)C(F)(F)C(F)(F)C(F)(F)C(F)(F)C(F)(F)F
99 | 195 | Cc1c(CNS(=O)(=O)c2ccc(C(F)(F)F)cc2)nn(-c2ccc(Cl)cc2Cl)c1-c1ccc(Br)cc1
